Measured values as given in US8802673B2, “Heterocyclic amine derivatives” (Hoffmann-La Roche Inc, priority 2011, dated 2014).

How the values were obtained:
mouse TAAR1 = mouse TAAR1 (Mus musculus (Mouse), UniProt Q923Y8); assay: Radioligand binding assay on mouse TAAR1; conditions: mouse TAAR1 (first value of the cell), HEK-293 membranes; read-out: Ki (μM) mouse/rat
Outline: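 Membranes from HEK293 cells stably expressing mouse TAAR1, Kd of radioligand determined per batch by saturation. Compounds tested 10 pM to 10 μM in duplicate, incubated 1 h at 4 °C, then filtration over PEI-soaked GF/C filters and scintillation counting.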

rat TAAR1 = rat TAAR1 (Rattus norvegicus (Rat), UniProt Q923Y9); assay: Radioligand binding assay on rat TAAR1; conditions: rat TAAR1 (second value of the cell), HEK-293 membranes; read-out: Ki (μM) mouse/rat
Outline: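 Membranes from HEK293 cells stably expressing rat TAAR1 were used, with radioligand Kd determined by saturation for each batch. Compounds (10 pM to 10 μM, in duplicate) were incubated for 1 h at 4 °C. Bound radioactivity was collected by filtration onto PEI-soaked GF/C filters and counted by scintillation.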

Sequence of rat TAAR1 (Q923Y9 whole entry): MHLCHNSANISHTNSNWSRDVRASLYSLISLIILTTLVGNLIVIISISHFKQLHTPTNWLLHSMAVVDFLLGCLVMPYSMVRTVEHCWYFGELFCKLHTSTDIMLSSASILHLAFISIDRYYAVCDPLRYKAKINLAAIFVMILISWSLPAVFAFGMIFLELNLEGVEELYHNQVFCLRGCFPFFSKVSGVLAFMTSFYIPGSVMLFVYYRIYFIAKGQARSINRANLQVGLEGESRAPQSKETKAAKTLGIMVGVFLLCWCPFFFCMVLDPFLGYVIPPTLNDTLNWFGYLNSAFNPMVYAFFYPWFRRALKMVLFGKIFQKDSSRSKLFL
Sequence of mouse TAAR1 (Q923Y8 whole entry): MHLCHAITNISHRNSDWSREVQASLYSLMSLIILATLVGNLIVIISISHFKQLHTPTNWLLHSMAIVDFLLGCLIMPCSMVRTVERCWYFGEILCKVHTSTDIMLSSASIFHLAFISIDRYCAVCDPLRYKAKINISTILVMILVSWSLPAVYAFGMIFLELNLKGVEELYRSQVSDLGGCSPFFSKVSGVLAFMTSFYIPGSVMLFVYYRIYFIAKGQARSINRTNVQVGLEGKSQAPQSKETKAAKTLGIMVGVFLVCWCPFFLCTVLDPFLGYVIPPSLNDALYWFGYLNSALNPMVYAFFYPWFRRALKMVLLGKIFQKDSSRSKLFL

Row | Ki (mouse TAAR1) | Ki (rat TAAR1) | Compound
1 | 0.0196 µM | 0.232 µM | Clc1ccc(Nc2ccc(C3CNCCO3)cn2)nc1 (racemic) [Example 90, (RS)-5-Chloro-N-(5-(morpholin-2-yl)pyridin-2-yl)pyridin-2-amine]
2 | 0.0667 µM | 1.06 µM | COCCOc1cnc(Nc2ccc([C@@H]3CNCCO3)cc2)nc1 [Example 139]
3 | 0.0269 µM | 0.648 µM | Fc1cncc(Nc2ccc([C@H]3CNCCO3)cc2)c1 [Example 43, (S)-5-Fluoro-N-(4-(morpholin-2-yl)phenyl)pyridin-3-amine]
4 | 0.0243 µM | 0.0397 µM | FC(F)(F)c1cnc(Nc2ccc([C@H]3CNCCO3)cc2Cl)nc1 [Example 169, ((S)-2-Chloro-4-morpholin-2-yl-phenyl)-(5-trifluoromethyl-pyrimidin-2-yl)-amine]
5 | 0.0044 µM | 0.05 µM | Clc1cnc(Nc2ccc([C@@H]3CNCCO3)cc2)nc1 [Example 103, (R)-5-Chloro-N-(4-(morpholin-2-yl)phenyl)pyrimidin-2-amine]
6 | 0.0016 µM | 0.223 µM | c1ccc(Cn2ccc(Nc3ccc([C@H]4CNCCO4)cc3)n2)cc1 [Example 161, (1-Benzyl-1H-pyrazol-3-yl)-((S)-4-morpholin-2-yl-phenyl)-amine]
7 | 0.0047 µM | 0.0716 µM | Cc1cc(C2CNCCO2)ccc1Nc1ccc(Cl)cc1 (racemic) [Example 79, (RS)-(4-Chloro-phenyl)-(2-methyl-4-morpholin-2-yl-phenyl)-amine]
8 | 0.0056 µM | 0.0236 µM | FC(F)(F)c1cnc(Nc2ccc([C@H]3CNCCO3)cc2)nc1 [Example 19, ((S)-4-Morpholin-2-yl-phenyl)-(5-trifluoromethyl-pyrimidin-2-yl)-amine]
9 | 0.0032 µM | 0.0041 µM | CCCc1cnc(Nc2ccc(C3CNCCO3)cc2F)nc1 (racemic) [Example 101, (RS)-(2-Fluoro-4-morpholin-2-yl-phenyl)-(5-propyl-pyrimidin-2-yl)-amine]
10 | 0.0038 µM | 0.0196 µM | Clc1cc(Nc2ncc(C3CC3)cn2)ccc1[C@H]1CNCCO1 [Example 193, ((S)-3-Chloro-4-morpholin-2-yl-phenyl)-(5-cyclopropyl-pyrimidin-2-yl)-amine]
11 | 0.0069 µM | 0.0079 µM | Fc1cc([C@@H]2CNCCO2)ccc1Nc1ncc(C(F)(F)F)cn1 [Example 134, ((R)-2-Fluoro-4-morpholin-2-yl-phenyl)-(5-trifluoromethyl-pyrimidin-2-yl)-amine]
12 | 0.001 µM | 0.0032 µM | FS(F)(F)(F)(F)c1ccc(Nc2ccc([C@@H]3CNCCO3)cc2)cc1 [Example 191, (4-Pentalluorosulfanyl-phenyl)-((R)-4-morpholin-2-yl-phenyl)-amine]
13 | 0.011 µM | 0.34 µM | c1cc([C@H]2CNCCO2)ccc1Nc1ccc(C2COC2)cn1 [Example 165, ((S)-4-Morpholin-2-yl-phenyl)-(5-oxetan-3-yl-pyridin-2-yl)-amine]
14 | 0.005 µM | 0.0877 µM | CCc1cnc(Nc2ccc([C@H]3CNCCO3)cc2C)nc1 [Example 107, (5-Ethyl-pyrimidin-2-yl)-((S)-2-methyl-4-morpholin-2-yl-phenyl)-amine]
15 | 0.002 µM | 0.127 µM | c1ccc(Cn2ccc(Nc3ccc([C@@H]4CNCCO4)cc3)n2)cc1 [Example 162, (1-Benzyl-1H-pyrazol-3-yl)-((R)-4-morpholin-2-yl-phenyl)-amine]
16 | 0.0171 µM | 0.22 µM | CCc1cnc(Nc2ccc([C@H]3CNCCO3)cc2)nc1C [Example 72, (5-Ethyl-4-methyl-pyrimidin-2-yl)-((S)-4-morpholin-2-yl-phenyl)-amine]
17 | 0.152 µM | > 10 µM | c1cnc(Nc2ccc([C@@H]3CNCCO3)cc2)nc1 [Example 176, (R)—N-(4-(Morpholin-2-yl)phenyl)pyrimidin-2-amine]
18 | 0.0008 µM | 0.0138 µM | Clc1cc(Nc2ccc([C@H]3CNCCO3)cc2)nc2ccccc12 [Example 54, (S)-4-Chloro-N-(4-(morpholin-2-yl)phenyl)quinolin-2-amine]
19 | 0.0641 µM | 1.36 µM | COCCOc1cnc(Nc2ccc([C@H]3CNCCO3)cc2)nc1 [Example 138]
20 | 0.0276 µM | 0.448 µM | N#Cc1cnc(Nc2ccc([C@H]3CNCCO3)cc2)nc1 [Example 16, 2-((S)-4-Morpholin-2-yl-phenylamino)-pyrimidine-5-carbonitrile]
21 | 0.0124 µM | 0.0705 µM | FC(F)(F)Oc1ccc(CNc2ccc([C@H]3CNCCO3)cc2)cc1 [Example 25, ((S)-4-Morpholin-2-yl-phenyl)-(4-trifluoromethoxy-benzyl)-amine]
22 | 0.27 µM | 1.08 µM | FC(F)(F)c1cccnc1Nc1ccc([C@H]2CNCCO2)cc1 [Example 41, (S)—N-(4-(Morpholin-2-yl)phenyl)-3-(trifluoromethyl)pyridin-2-amine]
23 | 0.0005 µM | 0.0094 µM | Cc1cc(Nc2ccc([C@H]3CNCCO3)cc2)ncc1Br [Example 62, (S)-5-Bromo-4-methyl-N-(4-(morpholin-2-yl)phenyl)pyridin-2-amine]
24 | 0.0015 µM | 0.0337 µM | Brc1ccc(Nc2ccc([C@H]3CNCCO3)cc2)nc1 [Example 10, (S)-5-Bromo-N-(4-(morpholin-2-yl)phenyl)pyridin-2-amine]
25 | 0.0023 µM | 0.0518 µM | FC(F)(F)c1ccnc(Nc2ccc([C@H]3CNCCO3)cc2)c1 [Example 42, (S)—N-(4-(Morpholin-2-yl)phenyl)-4-(trifluoromethyl)pyridin-2-amine]
26 | 0.122 µM | 0.0785 µM | FC(F)(F)C(Nc1ccc(CCC2CCCNC2)cc1)c1ccc(Cl)cc1 (racemic) [Example 4, (RS)-[1-(4-Chloro-phenyl)-2,2,2-trifluoro-ethyl]-[(RS)-4-(2-piperidin-3-yl-ethyl)-phenyl]-amine]
27 | 0.0061 µM | 2.75 µM | Cc1ccc(Nc2ccc([C@H]3CNCCO3)cc2)nn1 [Example 160, (6-Methyl-pyridazin-3-yl)-((S)-4-morpholin-2-yl-phenyl)-amine]
28 | 0.0017 µM | 0.0131 µM | c1cc([C@H]2CNCCO2)ccc1Nc1ncc(C2CC2)cn1 [Example 17, (5-Cyclopropyl-pyrimidin-2-yl)-((S)-4-morpholin-2-yl-phenyl)-amine]
29 | 0.0046 µM | 0.14 µM | c1cc(C2CNCCO2)ccc1Nc1ccn(CC2CC2)n1 (racemic) [Example 146, (RS)-(1-Cyclopropylmethyl-1H-pyrazol-3-yl)-(4-morpholin-2-yl-phenyl)-amine]
30 | 0.0059 µM | 0.0295 µM | c1cc([C@H]2CNCCO2)ccc1Nc1ncc2c(n1)CCCC2 [Example 74, ((S)-4-Morpholin-2-yl-phenyl)-(5,6,7,8-tetrahydro-quinazolin-2-yl)-amine]

Row | Compound | Ki (mouse TAAR1) | Ki (rat TAAR1)
31 | Fc1cc(Cl)ccc1Nc1ccc([C@H]2CNCCO2)cc1 [Example 59, (S)-4-Chloro-2-fluoro-N-(4-(morpholin-2-yl)phenyl)aniline] | 0.0049 µM | 0.207 µM
32 | Fc1cc(Nc2ncc(C3CC3)cn2)ccc1[C@@H]1CNCCO1 [Example 192, (R)-5-Cyclopropyl-N-(3-fluoro-4-(morpholin-2-yl)phenyl)pyrimidin-2-amine] | 0.0025 µM | 0.0026 µM
33 | CCc1ccc(CNc2ccc([C@H]3CNCCO3)cc2)cc1 [Example 36, (4-Ethyl-benzyl)-((S)-4-morpholin-2-yl-phenyl)-amine] | 0.0288 µM | 0.163 µM
34 | FC(F)(F)c1ccnc(Nc2ccc([C@@H]3CNCCO3)cc2)n1 [Example 173, (R)—N-(4-(Morpholin-2-yl)phenyl)-4-(trifluoromethyl)pyrimidin-2-amine] | 0.0044 µM | 0.0625 µM
35 | Fc1cc([C@@H]2CNCCO2)ccc1Nc1ncc(OCC(F)(F)F)cn1 [Example 144, ((R)-2-Fluoro-4-morpholin-2-yl-phenyl)-[5-(2,2,2-trifluoro-ethoxy)-pyrimidin-2-yl]-amine] | 0.0042 µM | 0.0049 µM
36 | Cc1cnc(Nc2ccc([C@H]3CNCCO3)cc2)cn1 [Example 156, (5-Methyl-pyrazin-2-yl)-((S)-4-morpholin-2-yl-phenyl)-amine] | 0.0093 µM | 0.833 µM
37 | COCCOc1cnc(Nc2ccc([C@@H]3CNCCO3)cc2F)nc1 [Example 151, ((R)-2-Fluoro-4-morpholin-2-yl-phenyl)-[5-(2-methoxy-ethoxy)-pyrimidin-2-yl]-amine] | 0.048 µM | 0.0954 µM
38 | CCc1cnc(Nc2ccc([C@H]3CNCCO3)cc2)nc1 [Example 15, (5-Ethyl-pyrimidin-2-yl)-((S)-4-morpholin-2-yl-phenyl)-amine] | 0.0028 µM | 0.0466 µM
39 | CCCc1cnc(Nc2ccc([C@@H]3CNCCO3)cc2)nc1 [Example 93, ((R)-4-Morpholin-2-yl-phenyl)-(5-propyl-pyrimidin-2-yl)-amine] | 0.005 µM | 0.0222 µM
